US20250032476A1, “ALPHA-2A ADRENERGIC RECEPTOR MODULATORS AND USES THEREOF” (The Regents of the University of California, priority 2021, published 2025)
Read-outs that look alike come from different tables or passages of the source.

How the values were obtained:
[1] = Pharmacokinetics in mice (plasma, brain, CSF); type: in vivo
human α2AAR [2] = molecular target: T1, human α2AAR (Homo sapiens (Human), UniProt P08913); test: DiscoverX HitHunter cAMP G-protein activation assay
Protocol: DiscoverX HitHunter cAMP G-protein activation assay. […] Freezer stock cAMP Hunter cell lines were expanded, then seeded in a total volume of 20 uL into white walled, 384-well microplates and incubated at 37° C. prior to testing. For agonist determination, cells were incubated with compound samples in the presence of EC80 forskolin to induce response. Media was aspirated from cells and replaced with 15 uL 2:1 HBSS/10 mM Hepes: cAMP XS+Ab reagent. Intermediate dilution of sample stocks was performed to generate 4× sample in assay buffer containing 4× EC80 forskolin. […] Finally assay vehicle concentration was 1%. After sample incubation assay signal was generated through incubation with 20 uL cAMP XS+ED/CL lysis cocktail for one hour followed by incubation with 20 uL cAMP XS+EA reagent for three hours at room temperature. Microplates were read following signal generation with a PerkinElmer Envision Instrument for chemiluminescent signal detection. Compound activity was analyzed using CBIS data analysis suite. For Gi agonist mode, percentage activity is calculated using the following formula: % Activity=100%×(1−(mean RLU of test sample−mean RLU of MAX control)/(mean RLU of vehicle control−mean RLU of MAX control)). […] Each measurement was done in duplicate.
DiscoverX HitHunter cAMP G-protein activation assay. […] Freezer stock cAMP Hunter cell lines were expanded, then seeded in a total volume of 20 μL into white walled, 384-well microplates and incubated at 37° C. prior to testing. For agonist determination, cells were incubated with compound samples in the presence of EC50 forskolin to induce response. Media was aspirated from cells and replaced with 15 μL 2:1 HBSS/10 mM Hepes: cAMP XS+Ab reagent. Intermediate dilution of sample stocks was performed to generate 4× sample in assay buffer containing 4× EC80 forskolin. […] Finally assay vehicle concentration was 1%. After sample incubation assay signal was generated through incubation with 20 μL cAMP XS+ED/CL lysis cocktail for one hour followed by incubation with 20 μL cAMP XS+EA reagent for three hours at room temperature. Microplates were read following signal generation with a PerkinElmer Envision Instrument for chemiluminescent signal detection. Compound activity was analyzed using CBIS data analysis suite. For Gi agonist mode, percentage activity is calculated using the following formula: % Activity=100%×(1−(mean RLU of test sample−mean RLU of MAX control)/(mean RLU of vehicle control−mean RLU of MAX control)). […] Each measurement was done in duplicate.

[3] = Metabolic stability in male rat liver microsomes; type: in vitro ADME; conditions: 1 hour
Protocol: Metabolic stability studies. Metabolic stability of the test compounds was assessed using male pooled rat liver microsomes (Sprague Dawley, Sigma Aldrich) as previously described (93, 94). The reactions were carried out in 2 mL polyethylene tubes on a rotator carousel (Stuart™ SB3) in an incubator at 37° C. […] Transformation reactions were initiated by the addition of 50 μL of cofactor solution (NADPH, Carl Roth, final concentration 1 mM). […] Precipitated protein was removed by centrifugation (1 min, 16,000 rcf) and the supernatants were analysed by HPLC/MS on a Thermo Scientific Dionex Ultimate 3000 HPLC system equipped with a Zorbax Eclipse XDB-C8 column (4.6×150 mm, 5 μm), a DAD detector (210 nm, 230 nm, 254 nm, 310 nm), and a BRUKER amaZon SL mass spectrometer with ESI source. The following binary eluent system (methanol in water+0.1% (v/v) formic acid) was employed: 10% for 1 min, 10% to 100% in 20 min, 100% for 5 min, 100% to 10% in 2 min, 10% for 2 min, flow 0.4 mL/min. […] Control experiments were conducted in the absence of cofactor solution to determine non-specific binding to matrix. The integral (AUC) of the extracted ion chromatograms (EIC) was used to analyze the concentration of the remaining substrates. […]

[4] = molecular target: ALPHA-2A ADRENERGIC RECEPTOR (Homo sapiens (Human), UniProt P08913); test: Gi recruitment (G protein); type: cell-based; conditions: Gi recruitment
ALPHA-2A ADRENERGIC RECEPTOR, sequence (P08913 whole entry): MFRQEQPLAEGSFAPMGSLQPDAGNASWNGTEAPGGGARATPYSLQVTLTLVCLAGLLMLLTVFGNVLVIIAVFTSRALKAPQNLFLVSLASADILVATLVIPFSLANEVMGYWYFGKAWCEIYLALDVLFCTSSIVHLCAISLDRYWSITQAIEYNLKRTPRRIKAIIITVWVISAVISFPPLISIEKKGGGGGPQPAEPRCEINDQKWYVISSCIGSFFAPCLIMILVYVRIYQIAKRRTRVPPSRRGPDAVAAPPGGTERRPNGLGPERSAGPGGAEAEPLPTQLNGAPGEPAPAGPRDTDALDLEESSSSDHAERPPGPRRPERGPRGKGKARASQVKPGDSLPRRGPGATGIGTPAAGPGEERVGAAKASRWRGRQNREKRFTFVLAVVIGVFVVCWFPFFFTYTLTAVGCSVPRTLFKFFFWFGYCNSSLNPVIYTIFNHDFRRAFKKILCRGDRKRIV

human α2AAR [5] = molecular target: T1, human α2AAR; test: Gαi G protein activation, BRET biosensor assay in HEK293T cells; conditions: for Emax: HEK-293T
Protocol: Bioluminescense resonance energy transfer. G protein mediated activation of human α2AAR and D2long was monitored with Gαi1-RLucII (71, 72) together with Gβ1 and Gγ1-GFP10. Arrestin recruitment was performed by enhanced bystander BRET using CAAX-rGFP and β-arrestin-2-RLucII as biosensors (all biosensors are provided from M. Bouvier, Université de Montréal, Canada) (71, 73) in the presence of GRK2 as described (66, 74). In brief, HEK293T cells were transfected with a total amount of 3.3 μg DNA per 10^6 cells using linear polyethyleneimine (PEI, Polysciences, 3:1 PEI:DNA ratio) and transferred into 96-well half-area plates (Greiner, Frickenhausen, Germany) at a density of 10,000 cells per well and incubated for 48 hrs. Medium was exchanged with PBS (Hank's balanced salt solution) and cells were stimulated with ligands at 37° C. for 10 min for Gαi stimulation or arrestin recruitment, respectively.

α2AAR-S215^5.42A = α2AAR-S215^5.42A (Homo sapiens (Human), UniProt P08913, S215A); test: Gi activation (BRET) at α2AAR S215^5.42A mutant; type: cell-based; conditions: versus wild type
α2AAR-S215^5.42A, sequence (P08913 whole entry S215A): as the sequence (P08913 whole entry) above, with S215A counted along it
Protocol: (§1) Investigating the sensitivity of selected ligands to the receptor mutants α2AAR-D128^3.32A, α2AAR-D128^3.32T, α2AAR-D128^3.32L, α2AAR-S215^5.42A, α2AAR-Y409^6.55A, α2AAR-Y409^6.55T, α2AAR-Y409^6.55F, α2AAR-F427^7.39F, α2AAR-Y431^7.43A, and α2AAR-Y431^7.43F was determined by monitored G protein stimulation as described above transfecting the appropriate receptor together with Gαi1-RLucII and Gβ1/Gγ1-GFP10. […] Three to ten experiments were done in duplicate.
(§2) The sensitivity of selected ligands to the receptor mutants α2AAR-D128^3.32A, α2AAR-D128^3.32T, α2AAR-D128^3.32L, α2AAR-S215^5.42A, α2AAR-Y409^6.55A, α2AAR-Y409^6.55T, α2AAR-Y409^6.55F, α2AAR-F427^7.39F, α2AAR-Y431^7.43A, and α2AAR-Y431^7.43F was monitored by G protein activation as described above transfecting the appropriate receptor together with Gαi1-RLucII and Gβ1/Gγ2-GFP10. […] Similarly, the effect of the α2AAR-D128^3.32A, α2AAR-S215^5.42A, α2AAR-Y409^6.55A, α2AAR-Y409^6.55F, α2AAR-F427^7.39F, α2AAR-Y431^7.43A, and α2AAR-Y431^7.43F mutations on arrestin recruitment was evaluated as described above transfecting the appropriate receptor together with CAAX-rGFP, GRK2 and β-arrestin-2-RLucII. Data was analyzed as ligand induced changes in BRET compared to vehicle (deltaBRET). Three to seven experiments were done in duplicate.

human α2AAR [6] = molecular target: T1, human α2AAR; test: Radioligand competition binding to human α2AAR (HEK293T membranes, [3H]RX82,1002); conditions: human α2AAR
α2AAR F427^7.39 mutant = α2AAR F427^7.39 mutant (Homo sapiens (Human), UniProt P08913, F427A); test: Gi activation (BRET) at α2AAR F427^7.39 mutant; type: cell-based
α2AAR F427^7.39 mutant, sequence (P08913 whole entry F427A): as the sequence (P08913 whole entry) above, with F427A counted along it
Protocol: as §1, §2

[7] = mouse, plasma, ip, I.P. 10 mg/kg

T1 sequence (P08913 whole entry): as the sequence (P08913 whole entry) above

## Fc1cccc2c(Nc3ccncc3)cccc12 [Compound 7075, N-(5-fluoronaphthalen-1-yl)pyridin-4-amine]
[1]; 10 mg/kg i.p.
  Fold greater CSF Cmax than PS75: 4 fold
[1]; C57BL/6N ('9087, '7075, '4622), CD-1 (PS75), mouse, CSF, ip, I.P. 10 mg/kg, read-out: T ½ CSF (converted)
  half-life: 13.2 min
[1]; I.P. 10 mg/kg
  AUC Brain: 814000 ng·min/mL
  AUC CSF: 12000 ng·min/mL
  Cmax Brain: 8570 ng/mL
  Cmax CSF: 412 ng/mL
[1]; mouse, brain, ip, I.P. 10 mg/kg, read-out: T ½ Brain (converted)
  half-life: 43.8 min
[1]; [7]
  AUC: 952 ng·h/mL
  Cmax: 694 ng/mL
[1]; mouse, plasma, ip, I.P. 10 mg/kg, read-out: T ½ Plasma (converted)
  half-life: 38.4 min
Human α2AAR [2]
  EC50: 18 nM
Human α2AAR [2]; read-out: Gi/o Emax
  Emax: 96%
[3]
  Metabolic stability, compound remaining: remain largely unmodified after 1 hour
[4]; Table 6, result in words
  functional classification (agonist / weak agonist): agonist
[4]; Table 6, read-out: EC50
  EC50: 4.1 nM
[4]; Table 6, read-out: Emax (%)
  Emax: 89%
Human α2AAR [5]
  Fold increased Gi potency compared to ‘9087: 13 fold
Human α2AAR [5]; Gi EC50 ± SE, BRET biosensor, human α2AAR (Table 3)
  EC50: 4.1 nM
Human α2AAR [5]; Gαi EC50, BRET biosensor, HEK293T, human α2AAR
  EC50: 4.1 nM
Human α2AAR [5]; read-out: Gi Emax ± SEM
  Emax: 93%
Human α2AAR [5]; read-out: Gαi Emax
  Emax: 93%
α2AAR-S215^5.42A
  Fold improvement of Gi potency at S215^5.42A: 11 fold
Human α2AAR [6]; mean ± SEM (Table 3), read-out: Ki
  Ki: 37 ± 5.1 nM
Human α2AAR [6]; mean ± s.e.m., read-out: Ki for α2AAR
  Ki: 37 ± 5.1 nM
α2AAR F427^7.39 mutant
  Gi activity at F427^7.39 substitution: eliminated
